Assay results from PubChem BioAssay AID248 (DTP/NCI, 2004).
Toxic doses and inconclusive results are not listed. Cut-off read from the data, not from the text of the source: active = T/C of 150% or more; inactive = T/C below 125%.

Tested on: L1210 leukemia ip in BDF1 mice, survival T/C
Test: NCI In Vivo Anticancer Drug Screen. Data for tumor model L1210 Leukemia (intraperitoneal) in B6D2F1 (BDF1) mice
Details: endpoint: mean survival time, higher = longer survival
In short: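 Read-out is survival time, reported as the treated-group measurement over the vehicle-control measurement.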

[1] = dose: 50.0 mg/kg/injection, schedule: Q01DX001 (ip), vehicle: saline
[2] = dose: 100.0 mg/kg/injection, schedule: Q01DX001 (ip), vehicle: saline
[3] = dose: 200.0 mg/kg/injection, schedule: Q01DX001 (ip), vehicle: saline
[4] = dose: 400.0 mg/kg/injection, schedule: Q01DX001 (ip), vehicle: saline
[5] = dose: 100.0 mg/kg/injection, schedule: Q04DX003 (ip), vehicle: Klucel (hydroxypropylcellulose) (HPC)
[6] = dose: 200.0 mg/kg/injection, schedule: Q04DX003 (ip), vehicle: Klucel (hydroxypropylcellulose) (HPC)
[7] = dose: 400.0 mg/kg/injection, schedule: Q04DX003 (ip), vehicle: Klucel (hydroxypropylcellulose) (HPC)
[8] = dose: 100.0 mg/kg/injection, schedule: Q01DX009 (ip), vehicle: Klucel (hydroxypropylcellulose) (HPC)
[9] = dose: 200.0 mg/kg/injection, schedule: Q01DX009 (ip), vehicle: Klucel (hydroxypropylcellulose) (HPC)
[10] = dose: 100.0 mg/kg/injection, schedule: Q04DX003 (ip), vehicle: saline
[11] = dose: 200.0 mg/kg/injection, schedule: Q04DX003 (ip), vehicle: saline
[12] = dose: 100.0 mg/kg/injection, schedule: Q04DX003 (ip), vehicle: saline with Tween-80
[13] = dose: 200.0 mg/kg/injection, schedule: Q04DX003 (ip), vehicle: saline with Tween-80
[14] = dose: 400.0 mg/kg/injection, schedule: Q04DX003 (ip), vehicle: saline with Tween-80
[15] = dose: 100.0 mg/kg/injection, schedule: Q04DX002 (ip), vehicle: saline with Tween-80
[16] = dose: 200.0 mg/kg/injection, schedule: Q04DX002 (ip), vehicle: saline with Tween-80
[17] = dose: 400.0 mg/kg/injection, schedule: Q04DX002 (ip), vehicle: saline with Tween-80
[18] = dose: 100.0 mg/kg/injection, schedule: Q01DX001 (ip), vehicle: carboxymethylcellulose (CMC)
[19] = dose: 200.0 mg/kg/injection, schedule: Q01DX001 (ip), vehicle: carboxymethylcellulose (CMC)
[20] = dose: 400.0 mg/kg/injection, schedule: Q01DX001 (ip), vehicle: carboxymethylcellulose (CMC)

Measured: T/C

Cc1cc(Cl)c(C)c(Cl)c1Cl
inactive: dose: 100.0 mg/kg/injection, schedule: Q01DX001 (ip), vehicle: acetone 100 % of control | dose: 100.0 mg/kg/injection, schedule: Q01DX009 (ip), vehicle: acetone 92 % of control | dose: 100.0 mg/kg/injection, schedule: Q04DX003 (ip), vehicle: acetone 93 % of control | dose: 200.0 mg/kg/injection, schedule: Q01DX001 (ip), vehicle: acetone 97 % of control | dose: 200.0 mg/kg/injection, schedule: Q01DX009 (ip), vehicle: acetone 95 % of control | dose: 200.0 mg/kg/injection, schedule: Q04DX003 (ip), vehicle: acetone 97 % of control | dose: 400.0 mg/kg/injection, schedule: Q01DX001 (ip), vehicle: acetone 90 % of control | dose: 400.0 mg/kg/injection, schedule: Q01DX009 (ip), vehicle: acetone 95 % of control | dose: 400.0 mg/kg/injection, schedule: Q04DX003 (ip), vehicle: acetone 92 % of control

O=C(/C=C\c1ccccc1)OCCCCOC(=O)/C=C/c1ccccc1
inactive: [1] 103 % of control | [2] 101 % of control | [3] 91 % of control | [4] 97 % of control

COc1ccc(N=CC2CCCCC2=O)c([N+](=O)[O-])c1 (stereo not given)
inactive: [2] 106 % of control | [3] 95 % of control | [4] 93 % of control

O=c1[nH]c(=O)c2nccnc2[nH]1
inactive: dose: 25.0 mg/kg/injection, schedule: Q01DX009 (ip), vehicle: water 109 % of control | dose: 50.0 mg/kg/injection, schedule: Q01DX009 (ip), vehicle: water 111 % of control | dose: 100.0 mg/kg/injection, schedule: Q01DX009 (ip), vehicle: water 104 % of control | dose: 200.0 mg/kg/injection, schedule: Q01DX009 (ip), vehicle: water 101 % of control

O=C(O)C(Cc1ccccc1)NS(=O)(=O)Cc1ccccc1 (stereo not given)
inactive: dose: 100.0 mg/kg/injection, schedule: Q01DX001 (ip), vehicle: other 100 % of control | dose: 100.0 mg/kg/injection, schedule: Q04DX003 (ip), vehicle: other 96 % of control | dose: 200.0 mg/kg/injection, schedule: Q01DX001 (ip), vehicle: other 102 % of control | dose: 200.0 mg/kg/injection, schedule: Q04DX003 (ip), vehicle: other 93 % of control | dose: 400.0 mg/kg/injection, schedule: Q01DX001 (ip), vehicle: other 100 % of control | dose: 400.0 mg/kg/injection, schedule: Q04DX003 (ip), vehicle: other 93 % of control

c1ccc2c(c1)C(=NOc1nc3ccccc3c3ccccc13)c1ccccc1-2
inactive: dose: 100.0 mg/kg/injection, schedule: Q01DX001 (ip), vehicle: Klucel (hydroxypropylcellulose) (HPC) 96 % of control | [5] 93 % of control | dose: 200.0 mg/kg/injection, schedule: Q01DX001 (ip), vehicle: Klucel (hydroxypropylcellulose) (HPC) 91 % of control | [6] 95 % of control | dose: 400.0 mg/kg/injection, schedule: Q01DX001 (ip), vehicle: Klucel (hydroxypropylcellulose) (HPC) 86 % of control | [7] 99 % of control

CCOC(=O)N1CCC2C(CC3CC2C3(C)C)N1C(=O)OCC (stereo not given)
inactive: dose: 50.0 mg/kg/injection, schedule: Q01DX009 (ip), vehicle: Klucel (hydroxypropylcellulose) (HPC) 103 % of control | [8] 101 % of control | [5] 97 % of control | [9] 101 % of control | [6] 101 % of control | [7] 99 % of control

O=CNC(Cc1ccc(O)cc1)C(=O)O (stereo not given)
inactive: [10] 95 % of control | [11] 91 % of control | dose: 400.0 mg/kg/injection, schedule: Q04DX003 (ip), vehicle: saline 93 % of control

COc1ccc2c(c1)C(=O)C1CC3(CCC21)OCCO3 (stereo not given)
inactive: [8] 101 % of control | [5] 109 % of control | [9] 97 % of control | [6] 93 % of control | dose: 400.0 mg/kg/injection, schedule: Q01DX009 (ip), vehicle: Klucel (hydroxypropylcellulose) (HPC) 95 % of control | [7] 100 % of control

Nc1nc2c(ncn2C2CC(CO)C(O)C2O)c(=O)[nH]1 (stereo not given)
inactive: dose: 9.5 mg/kg/injection, schedule: Q01DX009 (ip), vehicle: other 101 % of control | dose: 19.0 mg/kg/injection, schedule: Q04DX003 (ip), vehicle: other 94 % of control | dose: 38.0 mg/kg/injection, schedule: Q04DX003 (ip), vehicle: other 92 % of control | dose: 75.0 mg/kg/injection, schedule: Q01DX001 (ip), vehicle: other 88 % of control

COC(=O)c1cccc(F)c1C(=O)c1ccc2ccccc2c1
inactive: [5] 100 % of control | [6] 91 % of control | [7] 97 % of control

c1ccc(Nc2nnc(Nc3ccccn3)c3ccccc23)nc1
inactive: [12] 95 % of control | [13] 93 % of control | [14] 96 % of control

CC(=O)CCC(=O)NC(C)C
inactive: [15] 102 % of control | [16] 102 % of control | [17] 117 % of control

COC(=O)CC(c1ccc(Cl)cc1)N1CCCCC1 (stereo not given)
inactive: [2] 98 % of control | [3] 102 % of control | [4] 96 % of control

Cc1ccccc1C=O
inactive: [1] 97 % of control | [2] 94 % of control | [3] 94 % of control | [4] 94 % of control

O=C1CC(=O)N(Cc2ccccc2)C(=O)N1Cc1ccccc1
inactive: [18] 86 % of control | [19] 92 % of control | [20] 90 % of control

CCCCCCCCCCCCCCCC(=O)OCCCCCCCCCC
inactive: [12] 100 % of control | [13] 87 % of control | [14] 95 % of control

CCOP(=S)(OCC)OCCN(CC)CC
inactive: dose: 5.0 mg/kg/injection, schedule: Q01DX001 (ip), vehicle: saline 101 % of control | dose: 10.0 mg/kg/injection, schedule: Q01DX001 (ip), vehicle: saline 105 % of control | dose: 20.0 mg/kg/injection, schedule: Q01DX001 (ip), vehicle: saline 105 % of control

CCCCS(=O)(=O)N1CCCCC1
inactive: dose: 100.0 mg/kg/injection, schedule: Q01DX009 (ip), vehicle: saline 107 % of control | dose: 200.0 mg/kg/injection, schedule: Q01DX009 (ip), vehicle: saline 95 % of control | dose: 400.0 mg/kg/injection, schedule: Q01DX009 (ip), vehicle: saline 106 % of control

O=C(CCN1CCCCC1)c1ccccc1
inactive: dose: 5.0 mg/kg/injection, schedule: Q04DX003 (ip), vehicle: saline 96 % of control | dose: 10.0 mg/kg/injection, schedule: Q04DX003 (ip), vehicle: saline 103 % of control | dose: 20.0 mg/kg/injection, schedule: Q04DX003 (ip), vehicle: saline 94 % of control

CC(N)(C(=O)O)c1ccccc1 (stereo not given)
inactive: dose: 50.0 mg/kg/injection, schedule: Q04DX003 (ip), vehicle: saline 96 % of control | [10] 89 % of control | [11] 102 % of control

C(CC1CC1)OCOCCC1CC1
inactive: dose: 100.0 mg/kg/injection, schedule: Q01DX001 (ip), vehicle: saline with Tween-80 93 % of control | dose: 200.0 mg/kg/injection, schedule: Q01DX001 (ip), vehicle: saline with Tween-80 97 % of control

CSc1nc(C(=O)O)c(C)c(=O)[nH]1
inactive: dose: 100.0 mg/kg/injection, schedule: Q01DX Z (ip), vehicle: saline 109 % of control | dose: 200.0 mg/kg/injection, schedule: Q01DX Z (ip), vehicle: saline 100 % of control

CCCCC(CC)C1NCCO1 (stereo not given)
inactive: dose: 50.0 mg/kg/injection, schedule: Q01DX009 (ip), vehicle: saline with Tween-80 87 % of control | dose: 100.0 mg/kg/injection, schedule: Q01DX009 (ip), vehicle: saline with Tween-80 100 % of control | [12] 105 % of control | dose: 200.0 mg/kg/injection, schedule: Q01DX009 (ip), vehicle: saline with Tween-80 93 % of control | [13] 86 % of control

CNC(=S)NNC(=O)c1ccncc1
inactive: [15] 100 % of control | [16] 100 % of control | [17] 100 % of control

Cc1ccc(S(=O)(=O)N2c3ccccc3-c3ccccc3C(=O)C2Br)cc1 (stereo not given)
inactive: [18] 105 % of control | [19] 105 % of control | [20] 124 % of control
